According to US20190017029A1, “Generation of Expandable Cardiovascular Progenitor Cells” (The J. David Gladstone Institutes, a testament trust …, priority 2016, published 2019):

Assays:
Assay type in all cases: cell-based, mouse
ieCPCs = assay: Cardiac (CM) differentiation of ieCPCs, cTnT expression; conditions: 20 ng/ml BMP4 or 5 μM IWP2 versus basal differentiation medium
Description: For cardiac differentiation, ieCPCs were passaged onto 96-well matrigel-coated plates at a density of […] cells/cm^2 and cultured in serum-free differentiation (SFD) medium for 10 days. IWP2 (5 μM) was added to SFD medium during the first six days to increase the yield of cardiomyocytes (CMs) in the functional characterization assays.
Differentiation efficiency of each cell type was calculated with qPCR, flow cytometry, and/or an In Cell Analyzer 2000 (General Electric Healthcare).
After washing cells three times with PBS, the cells were incubated with isotype-matched Alexa Fluorescence-conjugated secondary antibodies (Invitrogen) for 1 hour at room temperature. […] The expression of cTnT (measured by multiplying staining intensity and area) and Isl1 or α-SMA (percentage in total cells) were monitored and analyzed by an IN Cell Analyzer 2000.
To detect intracellular antigens, dissociated cells were fixed and permeabilized with a BD Cytofix/Cytoperm™ Fixation/Permeabilization Kit (BD Biosciences), and then incubated with antibodies for cTnT (MS-295-P1 Thermo Scientific; 1:200) and α-SMA (A-2547, Sigma-Aldrich; 1:200) at 4° C. overnight. After three washes, cells were incubated with isotype-matched Alexa Fluorescence-conjugated secondary antibodies (Invitrogen) for 1 hour at room temperature and detected by an LSR II Flow Cytometer (BD Biosciences).

Flk-1^+/PdgfR-α^+ cells = assay: Flow cytometry of Flk-1+/PdgfR-α+ cells during CASD cardiac reprogramming of 2nd MEFs treated with BACS; conditions: NU6140 4 μM along with BACS from day 8; day 14
Description: A Cell-Activation and Signaling-Directed (CASD) system-based cardiac reprogramming was conducted using methods described by Efe et al. (2011). Briefly, 2nd MEFs at passage 3 were seeded onto geltrex (Gibco)-coated plates at a density of 2.5×10^4 cells/well of a 12-well plate in MEF medium (day −2). Doxycycline (DOX; 2 μg/ml, Sigma-Aldrich) was added into the medium one day later (day −1) and the cells were cultured for another day. Medium was then changed to reprogramming medium (knockout DMEM supplemented with 5% knockout serum replacement (KSR), 15% embryonic stem cell (ESC)-qualified FBS, 1× Glutamax, 1×NEAA, 0.1 mM β-mercaptoethanol (β-ME), 1% ESC-qualified nucleosides (Millipore), 0.5 μM Jak inhibitor 1 (JI1; Millipore), and 2 μg/ml DOX) at day 0. This medium was renewed every 2 days. […]
On day 8, the medium was switched to ieCPC basal medium (Advanced DMEM/F12: Neural basal (1:1) supplemented with 1×N2, 1×B27 without Vitamin A, 1× Glutamax, 1×NEAA, 0.05% bovine serum albumin (BSA), and 0.1 mM β-ME) supplemented with BACS (5 ng/ml BMP4, 10 ng/ml Activin A, 3 μM CHIR99021, and 2 μM SU5402 (Tocris Bioscience)). JI1 (0.5 μM) was included to suppress the establishment of pluripotency until the cells were ready for purification at day 13. […]

ieCPC-CMs = assay: Beating frequency and Ca2+ transients in ieCPC-CMs, pharmacological studies
Description: Contracting cardiomyocytes derived from ieCPCs (ieCPC-CMs) were dispersed by first treating cells with Collagenase B for 5-10 min and then with Accutase for 5 min. Dissociated cells were replated onto matrigel-coated coverslips (Warner Instruments). After visible beating was reconfirmed, the coverslips were loaded with the Ca^2+-sensitive fluorescent indicator Fluo-4 (see below), and then placed in a superfusion bath (Warner Instruments) on a Nikon TiS inverted microscope equipped with a microfluorometer (lonOptix). Superfusion solutions were warmed to 30° C. with a superfusion system and heated perfusion pencil (ValveLink, AutoMate Scientific).
The ieCPC-CMs on coverslips were loaded with Fluo-4 AM in a 1:10 mixture of the indicator dissolved in dry dimethyl sulfoxide at 5 mM, plus Powerload concentrate (Life Technologies). This mixture was diluted 100-fold into extracellular Tyrode's solution and substituted for culture medium in dishes containing coverslips (final indicator concentration, 5 μM). […] Fluo-4 fluorescence transients were recorded with a standard filter set with excitation and emission centered on 480 nm and 535 nm, respectively (Chroma Technology).
Fluorescence was obtained from contracting cells plus a cell-free border using a cell-framing adaptor (IonOptix). Background fluorescence, recorded after removing the cell(s) from the field of view, was subtracted from all recordings. […] Background-corrected fluorescence transients were expressed relative to the diastolic fluorescence between spontaneous APs and were considered to reflect underlying changes in intracellular Ca^2+ concentration. Unless stated, reagents were from Sigma Chem. Co. Pharmacological studies were conducted on the spontaneous fluorescence transients of non-patch-clamped myocytes, and, to maximize coverslip usage, pharmacological agents were applied locally (only to the cell or cluster of interest) with the perfusion pencil.

ieCPC-SMCs = assay: Contractile assay of smooth muscle cells in vitro; conditions: 100 μM carbachol; seen in primary SMCs, not in undifferentiated ieCPCs
Description: ieCPCs, ieCPC-SMCs, and primary SMCs were treated with carbachol (100 μM, Sigma-Aldrich) and monitored with a Zeiss Axio Observer microscope in a time-lapse manner at 10-minute intervals for 1 hour. Cell-surface areas were then calculated with ImageJ software.

Cc1ccc2nc(NC(=O)CSc3nc4c(c(=O)n3-c3ccccc3)SCC4)sc2c1 [IWP2]
cardiac differentiation of ieCPCs (cTnT) (ieCPCs): dramatically enhanced

CCN(CC)C(=O)c1ccc(Nc2nc(OCC3CCCCC3)c3[nH]cnc3n2)cc1 [NU6140]
ratio of Flk-1+/PdgfR-α+ cells (Flk-1^+/PdgfR-α^+ cells): dramatically decreased

Cn1c(=O)c2c(ncn2C)n(C)c1=O [caffeine]
Ca2+ transients (release from sarcoplasmic reticulum) (ieCPC-CMs; 10 mM caffeine): elicited large Ca^2+ transients

C[N+](C)(C)CCOC(N)=O [carbachol]
effect on the isoproterenol-induced increase of frequency (ieCPC-CMs; 10 μM carbachol): blocked
contraction of ieCPC-SMCs (ieCPC-SMCs): induced contraction

CC(C)NCC(O)c1ccc(O)c(O)c1 (stereo not shown) [isoproterenol]
frequency of cell contraction and spontaneous Ca2+ transients (ieCPC-CMs; 1 μM isoproterenol): significantly increased

B1: BMP4: member of the group of bone morphogenic proteins and a ventral mesoderm inducer (protein, UniProt P12644 293-408, looked up)
Bone morphogenetic protein 4: SPKHHSQRARKKNKNCRRHSLYVDFSDVGWNDWIVAPPGYQAFYCHGDCPFPLADHLNSTNHAIVQTLVNSVNSSIPKACCVPTELSAISMLYLDEYDKVVLKNYQEMVVEGCGCR
cardiac differentiation of ieCPCs (cTnT) (ieCPCs): significantly impaired
